Measurements from patent US20050100888A1, “Methods based on hormone dependency of primary cancer cells” (Imperial College Innovations Limited, priority 2002, published 2005).

What was measured:
estrogen receptor (ER) [1] = target: T1, estrogen receptor (ER) (Homo sapiens, UniProt P03372); details: ER positive cell lines (MCF-7, T47-D, ZR75-1, BT474), virus 100:1, ligands 10^−7M
T1 sequence (P03372 1-595): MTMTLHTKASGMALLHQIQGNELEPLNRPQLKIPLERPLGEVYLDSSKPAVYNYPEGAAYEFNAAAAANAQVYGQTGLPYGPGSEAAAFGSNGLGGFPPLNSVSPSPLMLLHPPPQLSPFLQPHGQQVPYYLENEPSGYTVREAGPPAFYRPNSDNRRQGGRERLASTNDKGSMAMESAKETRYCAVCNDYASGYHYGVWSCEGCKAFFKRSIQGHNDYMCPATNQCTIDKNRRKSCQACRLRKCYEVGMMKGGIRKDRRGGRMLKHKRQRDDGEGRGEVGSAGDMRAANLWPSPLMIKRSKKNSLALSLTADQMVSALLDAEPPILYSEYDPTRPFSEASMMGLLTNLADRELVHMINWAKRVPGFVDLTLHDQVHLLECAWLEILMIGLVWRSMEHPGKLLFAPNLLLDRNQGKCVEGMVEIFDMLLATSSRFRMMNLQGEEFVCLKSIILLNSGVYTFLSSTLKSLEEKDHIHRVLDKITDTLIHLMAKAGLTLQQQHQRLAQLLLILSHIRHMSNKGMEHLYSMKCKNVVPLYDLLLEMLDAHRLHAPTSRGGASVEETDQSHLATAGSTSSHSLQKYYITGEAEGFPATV
Protocol: (§1) Reporter Gene Assay 48 hours after virus infection, 20 ul of 20% Triton in PBS was added to each well and incubated at RT for 10 minutes. […] (CRPG) made up in TBS at a concentration of 8 mg/ml was then added to the wells and the plate was incubated, foil-wrapped, at 37° C. until a colour change was observed. Plate readings were taken at a wavelength of 547 nm.

estrogen receptor (ER) [2] = assay: adenoERreporter assay in fine needle aspirates (FNA) from recurrent breast cancer; type: cell-based, human
Protocol: Cells obtained from FNAs were collected in PBS (Sigma, Poole, UK) containing 2% FCS. If the aspirate was bloody, erythrocyte lysis buffer (0.155M NH4Cl, 10 mM KHCO3, 0.1 mM EDTA, pH 7.4) was used to lyse the red blood cells and after a further wash with PBS, the cells were re-suspended in culture media for counting and immediate infections.
(§2) For infections of primary cells, 6-10,000 cells/well were allowed and exposed to the given quantity of virus, after which they were pelleted and re-supended in 200 ul of PR free/5% DSS medium containing the appropriate ligands prior to plating into 96-well plates.
as §1
(§3) We purified breast cancer cells from metastatic fluid, both pleural and ascites as well as fine needle aspirates (FNA) from recurrent breast cancer. These cells were counted and infected with adenoERreporter and after 48 hours a β-gal assay was performed. We have infected 9 metastatic effusions including 2 cell lines of passage number two, derived from pleural effusions and 4 FNAs. Tables 3 and 4 show the treatment history and characteristics of the patients that provided the samples. Where possible, some of the fluid was sent for cytology and ER staining. However, this was not always feasible due to the variability of cancer cells in the metastatic fluid.

estrogen receptor (ER) [3] = assay: adenoERreporter assay in breast cancer cells from metastatic effusions (pleural, ascites); type: cell-based, human
Source text: In the case of metastatic fluid, 100 mls of the fluid was sent for cytological examination and staining for ER and PR. The remaining fluid was centrifuged and the cell pellets were pooled. This was re-suspended in RPMI-1640/1% FCS and tumour cell numbers estimated as before. If the cells were in clusters, trypsin/EDTA (Sigma, Poole, UK) was used to obtain single cell suspensions before filtering to remove any debris. The remaining steps were as above. The purified cells were either infected immediately or cultured for a few days prior to infection.
as §2, §1
as §3, with “staining.” for “staining. However, this was not always feasible due to the variability of cancer cells in the metastatic fluid.”

estrogen receptor (ER) [4] = target: T1, estrogen receptor (ER); assay: adeno-reporter assay in purified primary breast cancer cells (tumour, lymph node); type: cell-based; details: E2 10 nM, OHT 100 nM, ICI 100 nM, 48 h
Protocol: (§4) The product was then filtered through a nylon mesh (Lockertex Ltd, Merseyside, UK) and the filtrate centrifuged at 2000 rpm, at room temperature (RT). The pellet was re-suspended in 9 mls of RPMI/1% FCS and a cell count performed to estimate the number of tumour cells in the preparation. […] A count of viable tumour cells was performed using trypan blue (Sigma, Poole, UK) prior to seeding in breast complete medium (DMEM/F-12 containing, 15 mM Hepes, 2 mM L-glutamine, 100U/ml penicillin, O. 1 mg/ml streptomycin, 50 U/ml polymixin B, 2.5 μg/ml amphotericin B, 5 μg/ml insulin, 10 μg/ml apo-transferrin, 100 μM ethanolamine, 1 μg/ml hydrocortisone, 10 ng/ml EGF) plus 5% FCS) for culture. The cells were used for experiments on day 3 after the initial plating.
as §2
(§5) Cells were incubated for 48 hours following infections unless stated otherwise.
as §1
(§6) We have used the adeno-reporter to infect purified cells from breast cancer and lymph nodes of 19 patients. The reporter assay was performed in a blinded fashion since the IHC report of ER status was not available until after the experiments were complete. Viral infections were performed in suspension so as not to loose cancer cells since they were only loosely adherent. Following exposure to the virus for an hour, the cells were washed to remove excess virus and then plated and incubated in PR free/5% DSS supplemented with the given ligands for 48 hours.

estrogen receptor (ER) [5] = assay: as above; type: cell-based, human; details: for Reporter response: E2 10 nM, OHT 100 nM, ICI 100 nM, 48 h
Protocol: as §4, §2, §5, §1, §6

estrogen receptor (ER) [6] = target: T1, estrogen receptor (ER); details: antagonist at 10^−7M; MCF7, virus 100:1, 48 hours
Protocol: as §5, §1

**Q.** `C[C@]12CC[C@@H]3c4ccc(O)cc4C[C@@H](CCCCCCCCC[S+]([O-])CCCC(F)(F)C(F)(F)F)[C@H]3[C@@H]1CC[C@@H]2O` (stereo partly drawn) [ICI 182,780] was tested. Which “reporter activity above baseline” value (estrogen receptor (ER) [1]) did it give?
**A.** blocked even the baseline activity

**Q.** What about the “Reporter Assay: inhibition” value (estrogen receptor (ER) [2]; FNA summary table, N = 1, IHC ER−/PR−, ?Responder) of the same compound?
**A.** OHT/ICI inhibit by × 1.8

**Q.** What about the “Reporter Activity” value (estrogen receptor (ER) [2]; Table 4 patient 8) T2GN0M0, primary ER++/PR−, FNA ER−/PR−, prior Arimidex 1y) of the same compound?
**A.** x1.0

**Q.** What about the “Reporter Activity” value (estrogen receptor (ER) [3]; Table 3 patient 7) T4G3N1M0, Ascites, ER−/PR−, no prior endocrine treatment) of the same compound?
**A.** x1.0

**Q.** What about the “Reporter Activity” value (estrogen receptor (ER) [3]; Table 3 patient 8) T1G1N1M0, Ascites, primary ER−/PR+, recurrent ER++/PR−, prior LHRH 11m, Arimidex) of the same compound?
**A.** ↓↓

**Q.** And the “effect on ER activity” value (estrogen receptor (ER) [3]; patient 4 (table 3), ascites, no previous treatment)?
**A.** inhibitory

**Q.** And the “proportion of cases in which inhibitory” value (estrogen receptor (ER) [3]; relapsed patients, metastatic effusions and FNAs)?
**A.** 50%

**Q.** And the Reporter response (estrogen receptor (ER) [4]; Table 2 patient 6, ER+++/PR+++)?
**A.** inh

**Q.** What about the Reporter response (estrogen receptor (ER) [4]; Table 2 patient 7, ER+++/PR+++, Post) of the same compound?
**A.** inh

**Q.** What about the Reporter response (estrogen receptor (ER) [5]; Table 2 patient 3 Ln) of the same compound?
**A.** inh

**Q.** What about the Reporter response (estrogen receptor (ER) [5]; Table 2 patient 5 Ln, ER+/PR−, Pre) of the same compound?
**A.** ns

**Q.** And the Reporter response (estrogen receptor (ER) [5]; Table 2 patient 8, ER+++/PR−, Post)?
**A.** ns

**Q.** And the Reporter response (estrogen receptor (ER) [5]; Table 2 patient 11, receptor status ?)?
**A.** inh

**Q.** What about the Reporter response (estrogen receptor (ER) [5]; Table 2 patient 12 Ln) of the same compound?
**A.** ns

**Q.** What about the Reporter response (estrogen receptor (ER) [5]; Table 2 patient 12 Tu, Anaplastic small cell carcinoma, ER−/PR−) of the same compound?
**A.** ns

**Q.** And the Reporter response (estrogen receptor (ER) [5]; Table 2 patient 13, ER−/PR−, Post)?
**A.** ns

**Q.** What about the Reporter response (estrogen receptor (ER) [5]; Table 2 patient 15 Ln) of the same compound?
**A.** ns

**Q.** What about the Reporter response (estrogen receptor (ER) [5]; Table 2 patient 15 Tu, ER−/PR−) of the same compound?
**A.** ns

**Q.** And the Reporter response (estrogen receptor (ER) [5]; Table 2 patient 16 Ln)?
**A.** ns

**Q.** And the Reporter response (estrogen receptor (ER) [5]; Table 2 patient 16 Tu, Post)?
**A.** ns

**Q.** What about the Reporter response (estrogen receptor (ER) [5]; Table 2 patient 17) of the same compound?
**A.** ns

**Q.** What about the Reporter response (estrogen receptor (ER) [5]; Table 2 patient 18, ER−/PR−) of the same compound?
**A.** ns

**Q.** What about the “effect on reporter activity across patient samples” value (estrogen receptor (ER) [5]; purified cells from breast cancer and lymph nodes of 19 patients) of the same compound?
**A.** inhibitory in all cases

**Q.** What about the “effect on E2 induced reporter activity” value (estrogen receptor (ER) [6]) of the same compound?
**A.** blocked E2 induced reporter activity
